pIC50: −log10 of the molar value.
Each molecule was assayed against T1, USP7 (Homo sapiens, UniProt Q93009) (assay: USP7 Assay A (Ubitquin-Rhodamine 110 Assay)). Settings: USP7 activity in USP7 assay A and B (table does not say which assay per compound); read-out: USP7_IC50.
T1 construct: USP7, construct USP7 (208-1102) 6*His, Viva Biotech; 6xHis (C); purchased Viva Biotech
Type: biochemical
How it was run: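 Enzyme and compound sat together for 30 min before Ub-Rh110 was added, in buffer of 20 mM Tris-HCl (pH 8.0), 1 mM GSH, 0.03% BGG and 0.01% Triton X-100.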

T1 sequence (Q93009 208-1102): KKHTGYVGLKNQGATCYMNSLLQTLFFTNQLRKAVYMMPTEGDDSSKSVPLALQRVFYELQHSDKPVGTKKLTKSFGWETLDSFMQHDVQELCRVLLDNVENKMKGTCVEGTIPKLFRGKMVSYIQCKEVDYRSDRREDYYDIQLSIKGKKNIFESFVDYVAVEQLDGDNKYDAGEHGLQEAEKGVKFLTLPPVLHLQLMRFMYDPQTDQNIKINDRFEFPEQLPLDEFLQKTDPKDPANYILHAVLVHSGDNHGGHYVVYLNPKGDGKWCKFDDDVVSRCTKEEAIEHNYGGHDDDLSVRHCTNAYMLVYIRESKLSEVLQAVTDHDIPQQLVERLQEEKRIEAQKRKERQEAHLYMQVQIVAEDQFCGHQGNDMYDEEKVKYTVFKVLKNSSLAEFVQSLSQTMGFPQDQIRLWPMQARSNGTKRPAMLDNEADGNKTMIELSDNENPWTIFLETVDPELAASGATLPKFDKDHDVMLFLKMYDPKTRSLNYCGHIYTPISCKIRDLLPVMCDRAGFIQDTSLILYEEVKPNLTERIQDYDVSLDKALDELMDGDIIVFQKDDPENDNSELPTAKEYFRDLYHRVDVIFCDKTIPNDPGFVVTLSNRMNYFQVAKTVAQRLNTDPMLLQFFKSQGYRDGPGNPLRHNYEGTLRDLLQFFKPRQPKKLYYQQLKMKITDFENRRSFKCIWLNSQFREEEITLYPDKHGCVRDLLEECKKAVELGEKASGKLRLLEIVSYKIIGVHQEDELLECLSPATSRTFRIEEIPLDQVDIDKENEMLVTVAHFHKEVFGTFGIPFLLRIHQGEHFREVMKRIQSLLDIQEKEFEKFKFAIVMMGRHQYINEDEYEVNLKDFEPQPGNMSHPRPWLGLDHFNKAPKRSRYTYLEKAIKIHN

First: Cn1nccc1O[C@H]1CC[C@H](C(=O)N2CCC(O)(Cn3cnc4c(ccn4-c4ccc(F)cc4)c3=O)CC2)CC1 [Compound I-794]
Second: O=C(c1cnc(C2CC2)o1)N1CCC(O)(Cn2cnc3c(ccn3-c3ccc(F)cc3)c2=O)CC1 [Compound I-849]
The pIC50 of the first is lower: 6.00 to 6.70 for the first, greater than 6.70 for the second. The second is the more potent here.

First: Cc1ccc(-n2ncc3c(=O)n(CC4(O)CCN(C(=O)C[C@H](C(F)F)n5ccc(F)n5)CC4)cnc32)cc1 [Compound I-796]
Second: Cc1ccc(-n2ncc3c(=O)n(CC4(O)CCN(C(=O)C[C@@H](C(F)F)n5ccc(F)n5)CC4)cnc32)cc1 [Compound I-797]
The pIC50 of the first is higher: greater than 6.70 for the first, 5.00 to 6.00 for the second. The first is the more potent here.

O=C(c1cnn(C2CC2)c1)N1CCC(O)(Cn2cnc3c(cnn3-c3ccc(C4CC4)cc3)c2=O)CC1 [Compound I-798] and O=C(c1cnc(C2CC2)o1)N1CCC(O)(Cn2cnc3c(cnn3-c3ccc(C4CCC4)cc3)c2=O)CC1 [Compound I-847] fall in the same range of pIC50: 6.00 to 6.70 for the first, 6.00 to 6.70 for the second.

Cc1ncc(C(=O)N2CCC(O)(Cn3cnc4c(cnn4-c4ccc(C5CC5)cc4)c3=O)CC2)o1 [Compound I-799] and Cc1ncc(C(=O)N2CCC(O)(Cn3cnc4c(cnn4-c4ccc(C5CCC5)cc4)c3=O)CC2)o1 [Compound I-846] fall in the same range of pIC50: 6.00 to 6.70 for the first, 6.00 to 6.70 for the second.

First: Cc1cc(N[C@H]2CC[C@H](C(=O)N3CCC(O)(Cn4cnc5c(cnn5-c5ccc(F)cc5)c4=O)CC3)CC2)no1 [Compound I-806]
Second: Cc1cc(N[C@H]2CC[C@@H](C(=O)N3CCC(O)(Cn4cnc5c(cnn5-c5ccc(F)cc5)c4=O)CC3)CC2)no1 [Compound I-807]
The pIC50 of the first is higher: 6.00 to 6.70 for the first, 5.00 to 6.00 for the second.

First: CN1CC(O)(COc2ccc(-n3ncc4c(=O)n(CC5(O)CCN(C(=O)c6ccc(F)cc6)CC5)cnc43)cc2)C1 [Compound I-816]
Second: O=C(c1ccc(F)cc1)N1CCC(O)(Cn2cnc3c(cnn3-c3ccc(-n4ncc5c4CCOC5)cc3)c2=O)CC1 [Compound I-820]
The pIC50 of the first is higher: greater than 6.70 for the first, 6.00 to 6.70 for the second. The first is the more potent here.

First: O=C(c1cnc(C2CC2)o1)N1CCC(O)(Cn2cnc3c(cnn3-c3ccc(OC4CCC(F)(F)CC4)cc3)c2=O)CC1 [Compound I-817]
Second: Cc1cc2c(=O)n(CC3(O)CCN(C(=O)c4cnc(C5CC5)o4)CC3)cnc2n1-c1ccc(F)cc1 [Compound I-850]
The pIC50 of the first is higher: greater than 6.70 for the first, 6.00 to 6.70 for the second.

First: CN1CCN(c2ccn(-c3ccc(-n4ncc5c(=O)n(CC6(O)CCN(C(=O)C7CC7)CC6)cnc54)cc3)n2)CC1 [Compound I-818]
Second: O=C(C1CC1)N1CCC(O)(Cn2cnc3c(cnn3-c3ccc(-n4cc(N5CCOCC5)cn4)cc3)c2=O)CC1 [Compound I-819]
The pIC50 of the first is higher: greater than 6.70 for the first, 6.00 to 6.70 for the second.

Compared with O=C(C[C@H](C(F)F)n1cccn1)N1CCC(O)(Cn2cnc3c(cnn3-c3ccc(N4CCCCC4)cc3)c2=O)CC1 [Compound I-821], O=C(C[C@@H](C(F)F)n1cccn1)N1CCC(O)(Cn2cnc3c(cnn3-c3ccc(N4CCCCC4)cc3)c2=O)CC1 [Compound I-822] is higher in pIC50: 5.00 to 6.00 for the first, 6.00 to 6.70 for the second. The second is the more potent here.

CN1CCN(c2ccc(-n3ncc4c(=O)n(CC5(O)CCN(C(=O)CC(C(F)F)n6cccn6)CC5)cnc43)cc2)CC1 (centres unmarked) [Compound I-825] and CN1CCN(c2ccc(-n3ncc4c(=O)n(CC5(O)CCN(C(=O)C[C@H](C(F)F)n6cccn6)CC5)cnc43)cc2)CC1 [Compound I-826] cannot be ordered by pIC50: greater than 6.70 for the first, greater than 6.70 for the second.

Compared with CN1CCN(c2cccc(-n3ncc4c(=O)n(CC5(O)CCN(C(=O)C[C@H](C(F)F)n6cccn6)CC5)cnc43)c2)CC1 [Compound I-829], CN1CCN(c2cccc(-n3ncc4c(=O)n(CC5(O)CCN(C(=O)C[C@@H](C(F)F)n6cccn6)CC5)cnc43)c2)CC1 [Compound I-830] is lower in pIC50: greater than 6.70 for the first, 6.00 to 6.70 for the second.

C=CC(=O)N1CCC1C(=O)N1CCC(O)(Cn2cnc3c(cnn3-c3cccc(N4CCN(C)CC4)c3)c2=O)CC1 (centres unmarked) [Compound I-831] and C=CC(=O)N1CCC1C(=O)N1CCC(O)(Cn2cnc3c(cnn3-c3ccc(N4CCN(C)CC4)cc3)c2=O)CC1 (centres unmarked) [Compound I-832] cannot be ordered by pIC50: greater than 6.70 for the first, greater than 6.70 for the second.

First: C[C@]1(O)CCN(c2ccc(-n3ncc4c(=O)n(CC5(O)CCN(C(=O)C[C@H](C(F)F)n6cccn6)CC5)cnc43)cc2)C1 [Compound I-833]
Second: C[C@@]1(O)CCN(c2ccc(-n3ncc4c(=O)n(CC5(O)CCN(C(=O)C[C@H](C(F)F)n6cccn6)CC5)cnc43)cc2)C1 [Compound I-834]
The pIC50 of the first is higher: greater than 6.70 for the first, 5.00 to 6.00 for the second. The first is the more potent here.

Compared with C[C@]1(O)CCN(c2ccc(-n3ncc4c(=O)n(CC5(O)CCN(C(=O)C[C@@H](C(F)F)n6cccn6)CC5)cnc43)cc2)C1 [Compound I-835], C[C@@]1(O)CCN(c2ccc(-n3ncc4c(=O)n(CC5(O)CCN(C(=O)C[C@@H](C(F)F)n6cccn6)CC5)cnc43)cc2)C1 [Compound I-836] is lower in pIC50: greater than 6.70 for the first, 5.00 to 6.00 for the second. The first is the more potent here.

First: C[C@@H](CC(=O)N1CCC(O)(Cn2cnc3c(cnn3-c3ccc(N4CC[C@](C)(O)C4)cc3)c2=O)CC1)n1cccn1 [Compound I-837]
Second: C[C@@H](CC(=O)N1CCC(O)(Cn2cnc3c(cnn3-c3ccc(N4CC[C@@](C)(O)C4)cc3)c2=O)CC1)n1cccn1 [Compound I-838]
The pIC50 of the first is higher: greater than 6.70 for the first, 5.00 to 6.00 for the second. The first is the more potent here.

First: C[C@H](CC(=O)N1CCC(O)(Cn2cnc3c(cnn3-c3ccc(N4CC[C@](C)(O)C4)cc3)c2=O)CC1)n1cccn1 [Compound I-839]
Second: C[C@H](CC(=O)N1CCC(O)(Cn2cnc3c(cnn3-c3ccc(N4CC[C@@](C)(O)C4)cc3)c2=O)CC1)n1cccn1 [Compound I-840]
The pIC50 of the first is higher: greater than 6.70 for the first, 5.00 to 6.00 for the second. The first is the more potent here.

CNC1CCN(c2ccc(-c3ccc(-n4ncc5c(=O)n(CC6(O)CCN(C(=O)C7CC7)CC6)cnc54)cc3)cn2)C1 (centres unmarked) [Compound I-845] and O=C(C1CCC(Oc2ccccn2)CC1)N1CCC(O)(Cn2cnc3c(cnn3-c3ccc(CO)cc3)c2=O)CC1 (centres unmarked) [Compound I-852] cannot be ordered by pIC50: greater than 6.70 for the first, greater than 6.70 for the second.

In the case of O=C(C1CCC(Oc2ccccn2)CC1)N1CCC(O)(Cn2cnc3c(cnn3-c3ccc(CO)cc3)c2=O)CC1 (centres unmarked) [Compound I-853], the pIC50 was 6.00 to 6.70.

Same assay, conditions: USP7 assay A and B (table does not say which assay per compound); read-out: USP7_IC50

C#CC(=O)N1CC[C@H]1C(=O)N1CCC(O)(Cn2cnc3c(cnn3-c3ccc(F)cc3)c2=O)CC1 [Compound I-803] and O=C(C1CC1)N1CCC(O)(Cn2cnc3c(cnn3-c3ccc(C4CCNCC4)cc3)c2=O)CC1 [Compound I-843, 5-((1-(cyclopropanecarbonyl)-4-hydroxypiperidin-4-yl)methyl)-1-(4-(piperidin-4-yl)phenyl)-1H-pyrazolo[3,4-d]pyrimidin-4(5H)-one] fall in the same range of pIC50: 6.00 to 6.70 for the first, 6.00 to 6.70 for the second.

C=CS(=O)(=O)N[C@H](Cc1ccccc1)C(=O)N1CCC(O)(Cn2cnc3c(cnn3-c3ccccc3)c2=O)CC1 [Compound I-814] and O=C(c1ccc(OC(F)F)cc1)N1CCC(O)(Cn2cnc3c(cnn3-c3ccc(CO)cc3)c2=O)CC1 [Compound I-851] fall in the same range of pIC50: 6.00 to 6.70 for the first, 6.00 to 6.70 for the second.

CN(C)CCN(C)c1cccc(-n2ncc3c(=O)n(CC4(O)CCN(C(=O)c5ccc(F)cc5)CC4)cnc32)c1 [Compound I-823] and O=C(c1ccc(F)cc1)N1CCC(O)(Cn2cnc3c(cnn3-c3ccc(F)c(N4CCNCC4)c3)c2=O)CC1 [Compound I-824] fall in the same range of pIC50: 6.00 to 6.70 for the first, 6.00 to 6.70 for the second.

O=C(C1CC1)N1CCC(O)(Cn2cnc3c(cnn3-c3ccc(-c4ccc(O[C@H]5CCNC5)cc4)cc3)c2=O)CC1 [Compound I-841] and O=C(C1CC1)N1CCC(O)(Cn2cnc3c(cnn3-c3ccc(-c4ccc(O[C@@H]5CCNC5)cc4)cc3)c2=O)CC1 [Compound I-842] fall in the same range of pIC50: 6.00 to 6.70 for the first, 6.00 to 6.70 for the second.

In the case of CN1CCN(c2ccc(-c3ccc(-n4ncc5c(=O)n(CC6(O)CCN(C(=O)C7CC7)CC6)cnc54)cc3)cc2)CC1 [Compound I-844], the pIC50 was greater than 6.70.

From US9902728B2, “Pyrrolo and pyrazolopyrimidines as ubiquitin-specific protease 7 inhibitors” (Forma Therapeutics, Inc., priority 2014, dated 2018)
